According to patent US20150217046A1, “DOSING REGIMENS FOR SUBCUTANEOUSLY INFUSIBLE ACIDIC COMPOSITIONS” (SynAgile Corporation, priority 2012, published 2015):
Read-outs that look alike come from different tables or passages of the source. Blank lines part the entries; values can stand above or below the molecule they belong to.

Columns and labels:
[1] = 0.44 M LDEE.HCl, pH 3.7±0.1, 4.0° C., 39 weeks, 3 samples
Procedure: The LD concentration was monitored in 3 samples of 0.44 M LDEE.HCl at pH 3.7±0.1 and 4.0° C.

[2] = initially about pH 3.7±0.2
Procedure: Such a pH can be maintained for example through co-dissolving citric acid and/or a citrate salt, e.g., monosodium citrate, for example to about 10-50 mM concentration. For infusion it is desired, in order to avoid acid-caused pain, to raise the pH at least to pH 2.4±0.3, for example to 2.4±0.3, 2.6±0.3, 2.8±0.3, 3.1±0.3, 3.4±0.3, 3.7±0.3 or to 4.0±0.3, for example by adding citric acid, monosodium citrate, or trisodium citrate.

[3] = 25° C., pH 7 or pH 5; cited from earlier work
[4] = Rate of hydrolysis of LD esters in solution; format: physicochemical; details: about pH 4.5, about 23° C.
Procedure: At a particular temperature and pH, the LDEs formed of LD and of different alcohols are hydrolyzed prior to their infusion at different rates. […] The rate of hydrolysis of LDE salts also depends on the anion, i.e., on the acid forming the LDE salt. LDE is hydrolyzed more rapidly when carboxylate anions and/or carboxylic acids replace the chloride anion or HCl. The rate of hydrolysis of the salt formed of LDEE and acetic acid can be about 3 times faster at about pH 4.5 at about 23° C. than that of LDEE.HCl, the salt formed of LDEE and HCl. The rate of hydrolysis at a particular pH and temperature can therefore depend on the buffering agent, e.g., citric acid and/or citrate anions, becoming faster when their concentration is elevated. Typically, the concentration of the buffering ions, i.e., the combined concentrations of citrates and citric acid, is between about 5 mM and 100 mM, for example between about 10 mM and 50 mM. The rate of hydrolysis can increase, for example, when the buffering citric acid-citrate concentration is increased.
In aqueous LDE salt pharmaceutical compositions, the hydrolysis rates generally decrease as the pH decreases, and the shelf life of the LDE salt consequently increases, unless the pH is about 1.7±0.5 or less. […] In acidic pharmaceutical compositions the amines of the LDEs are protonated, making the LDEs cations. […] The rates of hydrolysis generally increase with temperature, and may at least about double or about triple for each 10° C. increase, correspondingly decreasing upon cooling.

[5] = first infusion, continuous over 16 hours, 0.163 mL/hour, end of infusion
[6] = about 0.44 M LDEE.HCl infusible composition
[7] = about 1.0 M LDEE.HCl infusible composition

Structure (SMILES): CCOC(=O)[C@@H](N)Cc1ccc(O)c(O)c1.Cl [LDEE.HCl, hydrochloride salt of the ethyl ester of L-DOPA]
- concentration of LD after refrigerated storage [1]: less than 2 mg/mL
- pain during infusion (0.48 M LDEE.HCl pH 3.5, 1.25 millimoles per infusion, all three infusions): no pain at any time during the infusions
- diameter of area with redder skin [5]: 3 cm
- diameter of slightly protruding hard swelling [5]: 2.5 cm
- diameter of palpable induration (first infusion, continuous over 16 hours, after 21 hours): 1 cm
- diameter of induration (first infusion, continuous over 16 hours, after 2 days): 0.5 cm
- skin symptoms (second infusion, intermittent over 10.5 hours, 0.35 mL/hour, with oral carbidopa, end of infusion): no skin symptoms at the end of the infusion
- skin symptoms (second infusion, intermittent over 10.5 hours, with oral carbidopa, after 11 hours): a barely perceptible very lightly pink 2.5 cm diameter zone and a very mild soft palpable swelling
- skin symptoms (second infusion, intermittent over 10.5 hours, with oral carbidopa, after 36 hours): only a barely palpable 3 cm long 1 cm wide soft horizontal induration
- skin symptoms (third infusion, intermittent over 10.8 hours, 0.35 mL/hour, without oral carbidopa, end of infusion): no significant skin symptoms at the end of the infusion
- skin symptoms (third infusion, intermittent, without oral carbidopa, four hours after end of infusion): very slightly more pink over a 2.5 cm diameter zone and there was a small (2 cm×1 cm) barely palpable induration
- skin symptoms (third infusion, intermittent, without oral carbidopa, fourteen hours after end of infusion): the site could be recognized by its pink color
- Estimated operational life at 30° C. [2, 6]: >3 days
- Estimated operational life at 37° C. [2, 6]: >2 days
- Estimated storage life at 4° C. [2, 6]: >1.5 years
- Estimated storage life at 25° C. [2, 6]: >1 months
- Estimated operational life at 30° C. [2, 7]: >2 days
- Estimated operational life at 37° C. [2, 7]: >1 days
- Estimated storage life at 4° C. [2, 7]: >6 months
- Estimated storage life at 25° C. [2, 7]: >2 weeks

Structure (SMILES): N[C@@H](Cc1ccc(O)c(O)c1)C(=O)O [levodopa]
- solubility [3]: ≤ 5 g per liter

- rate of hydrolysis relative to LDEE.HCl [4]: about 3 times
Structure (SMILES): CC(=O)O.CCOC(=O)C(N)Cc1ccc(O)c(O)c1 (stereo not shown) [salt formed of LDEE and acetic acid]
